Reference: ChEMBL document CHEMBL1201862, “PubChem BioAssay data set” (2004)
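Values below derive from 48-hour exposures of cells grown in 96-well plates, with endpoints linearly interpolated between the two concentrations bracketing the appropriate inhibition level. GI50 is the concentration that inhibits growth by half.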 The source made the active and inactive calls. Cut-off read from the data, not from the text of the source: active = GI50 up to about 1.1 µM and inactive = higher.

What was measured:
Assay in all cases: NCI anticancer screen, dose series, 48 h
[1] = test system: 786-0
[2] = test system: A498
[3] = test system: A549
[4] = test system: ACHN
[5] = test system: BT-549
[6] = test system: CAKI-1
[7] = test system: CCRF-CEM
[8] = test system: COLO 205
[9] = test system: DU-145
[10] = test system: EKVX
[11] = test system: HCC 2998
[12] = test system: HCT-116
[13] = test system: HCT-15
[14] = test system: HL-60
[15] = test system: HOP-62
[16] = test system: HOP-92
[17] = test system: HT-29
[18] = test system: Hs-578T
[19] = test system: IGROV-1
[20] = test system: K562
[21] = test system: KM12
[22] = test system: LOX IMVI
[23] = test system: M14
[24] = test system: MCF7
[25] = test system: MDA-MB-231
[26] = test system: MDA-MB-435
[27] = test system: MDA-N
[28] = test system: MOLT-4
[29] = test system: Malme-3M
[30] = test system: NCI-H226
[31] = test system: NCI-H23
[32] = test system: NCI-H460
[33] = test system: NCI-H522
[34] = test system: NCI/ADR-RES
[35] = test system: OVCAR-3
[36] = test system: OVCAR-4
[37] = test system: OVCAR-5
[38] = test system: OVCAR-8
[39] = test system: PC-3
[40] = test system: RPMI-8226
[41] = test system: RXF 393
[42] = test system: SF-268
[43] = test system: SF-295
[44] = test system: SF-539
[45] = test system: SK-MEL-28
[46] = test system: SK-MEL-2
[47] = test system: SK-MEL-5
[48] = test system: SK-OV-3
[49] = test system: SN12C
[50] = test system: SNB-19
[51] = test system: SNB-75
[52] = test system: SR
[53] = test system: SW-620
[54] = test system: T47D
[55] = test system: TK-10
[56] = test system: U-251
[57] = test system: UACC-257
[58] = test system: UACC-62
[59] = test system: UO-31

Structure (SMILES): COc1cccc(Nc2nc(N)nc(N)c2N)c1
- GI50 [1]: 39.7 µM (inactive)
- GI50 [2]: > 100 µM (inactive)
- GI50 [3]: > 100 µM (inactive)
- GI50 [4]: 42.6 µM (inactive)
- GI50 [5]: 35.7 µM (inactive)
- GI50 [6]: 11.8 µM (inactive)
- GI50 [7]: 18.5 µM (inactive)
- GI50 [8]: 34.4 µM (inactive)
- GI50 [9]: > 100 µM (inactive)
- GI50 [10]: > 100 µM (inactive)
- GI50 [11]: 98.2 µM (inactive)
- GI50 [12]: 22.2 µM (inactive)
- GI50 [13]: 36.9 µM
- GI50 [14]: 24.2 µM (inactive)
- GI50 [15]: 29.3 µM (inactive)
- GI50 [16]: > 100 µM (inactive)
- GI50 [17]: 40.7 µM (inactive)
- GI50 [18]: > 100 µM (inactive)
- GI50 [19]: 35.1 µM (inactive)
- GI50 [20]: 37.2 µM (inactive)
- GI50 [21]: > 100 µM (inactive)
- GI50 [22]: 21.4 µM (inactive)
- GI50 [23]: > 100 µM (inactive)
- GI50 [24]: 30.4 µM (inactive)
- GI50 [25]: 22.1 µM (inactive)
- GI50 [26]: 39.7 µM (inactive)
- GI50 [27]: 19.5 µM (inactive)
- GI50 [28]: 15.4 µM (inactive)
- GI50 [29]: > 100 µM (inactive)
- GI50 [30]: > 100 µM (inactive)
- GI50 [31]: 33.4 µM (inactive)
- GI50 [32]: 20 µM (inactive)
- GI50 [33]: 30 µM (inactive)
- GI50 [34]: > 100 µM (inactive)
- GI50 [35]: 42.8 µM (inactive)
- GI50 [36]: > 100 µM (inactive)
- GI50 [37]: > 100 µM (inactive)
- GI50 [38]: 65.2 µM (inactive)
- GI50 [39]: 99.8 µM (inactive)
- GI50 [40]: 24.9 µM (inactive)
- GI50 [41]: > 100 µM (inactive)
- GI50 [42]: > 100 µM (inactive)
- GI50 [43]: 29.7 µM (inactive)
- GI50 [44]: 40.8 µM (inactive)
- GI50 [45]: > 100 µM (inactive)
- GI50 [46]: > 100 µM (inactive)
- GI50 [47]: 30.3 µM (inactive)
- GI50 [48]: > 100 µM (inactive)
- GI50 [49]: 20.1 µM (inactive)
- GI50 [50]: > 100 µM (inactive)
- GI50 [51]: > 100 µM (inactive)
- GI50 [52]: 24 µM (inactive)
- GI50 [53]: 31.8 µM (inactive)
- GI50 [54]: 35.6 µM (inactive)
- GI50 [55]: > 100 µM (inactive)
- GI50 [56]: 76.9 µM (inactive)
- GI50 [57]: > 100 µM (inactive)
- GI50 [58]: 58.2 µM (inactive)
- GI50 [59]: > 100 µM (inactive)

Structure (SMILES): CC(C)=CCC[C@@H](C)C1=C(O)C(=O)C(C)=C(N[C@H](C)c2ccccc2)C1=O
- GI50 [1]: 3.66 µM (inactive)
- GI50 [2]: 3.91 µM (inactive)
- GI50 [3]: 3.28 µM (inactive)
- GI50 [4]: 3.72 µM (inactive)
- GI50 [5]: 7.16 µM (inactive)
- GI50 [6]: 4.11 µM (inactive)
- GI50 [7]: 0.923 µM (active)
- GI50 [8]: 4.33 µM (inactive)
- GI50 [9]: 6.53 µM (inactive)
- GI50 [10]: 5.08 µM (inactive)
- GI50 [11]: 11.7 µM (inactive)
- GI50 [12]: 4.66 µM (inactive)
- GI50 [13]: 2.67 µM
- GI50 [14]: 2.21 µM (inactive)
- GI50 [15]: 2.92 µM (inactive)
- GI50 [16]: 6.14 µM (inactive)
- GI50 [17]: 3.78 µM (inactive)
- GI50 [18]: 6.12 µM (inactive)
- GI50 [19]: 3.8 µM (inactive)
- GI50 [20]: 6.64 µM (inactive)
- GI50 [21]: 6.3 µM (inactive)
- GI50 [22]: 4.53 µM (inactive)
- GI50 [23]: 5.41 µM (inactive)
- GI50 [24]: 3.64 µM (inactive)
- GI50 [25]: 7.35 µM (inactive)
- GI50 [26]: 7.1 µM (inactive)
- GI50 [27]: 7.23 µM (inactive)
- GI50 [28]: 2.54 µM (inactive)
- GI50 [29]: 3.24 µM (inactive)
- GI50 [30]: 4.27 µM (inactive)
- GI50 [31]: 4.38 µM (inactive)
- GI50 [32]: 2.75 µM (inactive)
- GI50 [33]: 3.2 µM (inactive)
- GI50 [34]: 1.3 µM (inactive)
- GI50 [35]: 5.36 µM (inactive)
- GI50 [36]: 5.75 µM (inactive)
- GI50 [37]: 16.3 µM (inactive)
- GI50 [38]: 2.58 µM (inactive)
- GI50 [39]: 10.9 µM (inactive)
- GI50 [40]: 6.31 µM (inactive)
- GI50 [41]: 6.71 µM (inactive)
- GI50 [42]: 7.01 µM (inactive)
- GI50 [43]: 3.86 µM (inactive)
- GI50 [44]: 3.11 µM (inactive)
- GI50 [45]: 6.76 µM (inactive)
- GI50 [46]: 10.2 µM (inactive)
- GI50 [47]: 3.08 µM (inactive)
- GI50 [48]: 3.84 µM (inactive)
- GI50 [49]: 6.55 µM (inactive)
- GI50 [50]: 6.07 µM (inactive)
- GI50 [51]: 2.53 µM (inactive)
- GI50 [52]: 22.3 µM (inactive)
- GI50 [53]: 5.92 µM (inactive)
- GI50 [54]: 4.31 µM (inactive)
- GI50 [55]: 8.17 µM (inactive)
- GI50 [56]: 5.51 µM (inactive)
- GI50 [57]: 8.36 µM (inactive)
- GI50 [58]: 2.81 µM (inactive)
- GI50 [59]: 4.27 µM (inactive)
